According to BindingDB's records for doi:10.1021/jm049227l (Molecular Discovery, 2005):

Molecular target: Albumin (Homo sapiens, UniProt P02768)
Assay: Binding affinity towards human serum albumin

Chain of Albumin (P02768 whole entry): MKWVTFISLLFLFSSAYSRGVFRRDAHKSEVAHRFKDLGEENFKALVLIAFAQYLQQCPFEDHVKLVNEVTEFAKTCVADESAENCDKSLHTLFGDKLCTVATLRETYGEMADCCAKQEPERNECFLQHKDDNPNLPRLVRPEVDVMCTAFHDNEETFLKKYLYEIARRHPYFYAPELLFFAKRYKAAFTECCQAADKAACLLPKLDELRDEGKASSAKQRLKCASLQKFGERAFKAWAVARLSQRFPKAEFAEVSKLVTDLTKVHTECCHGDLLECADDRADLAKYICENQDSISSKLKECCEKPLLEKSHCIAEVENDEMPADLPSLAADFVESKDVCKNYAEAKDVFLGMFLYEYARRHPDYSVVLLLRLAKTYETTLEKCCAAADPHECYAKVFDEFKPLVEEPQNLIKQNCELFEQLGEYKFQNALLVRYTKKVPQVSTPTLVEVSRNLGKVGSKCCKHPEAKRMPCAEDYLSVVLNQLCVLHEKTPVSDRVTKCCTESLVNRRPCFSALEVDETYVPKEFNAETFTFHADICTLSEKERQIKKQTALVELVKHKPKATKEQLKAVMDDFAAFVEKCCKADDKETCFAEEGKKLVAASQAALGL

SMILES | Ki | Association constant (Ka)
CS(=O)(=O)Nc1ccc([N+](=O)[O-])cc1Oc1ccccc1 | 15100 M⁻¹ | –
NCc1cc(-c2ccc(C(=O)O)cc2)ccc1F | – | 1000 M⁻¹
CC(C)Cc1ccc([C@@H](C)C(=O)NCCCN(C)C)cc1 | – | 5010 M⁻¹
O=C(O)c1cccc(-c2ccc(Cl)cc2Cl)c1 | – | 23900 M⁻¹
Oc1ccc(-c2ccccc2)cc1 [4-Hydroxybiphenyl] | – | 9540 M⁻¹
O=C(O)c1cc(Cl)ccc1O [5-Chloro-2-hydroxy-benzoic acid] | – | 21300 M⁻¹
Cc1ccc(C(=O)c2ccc(CC(=O)O)n2C)cc1 [2-(1-methyl-5-(4-methylbenzoyl)-1H-pyrrol-2-yl)acetic acid] | – | 416000 M⁻¹
C[C@@H](C(=O)NS(C)(=O)=O)c1ccc(OS(=O)(=O)C(F)(F)F)cc1 [DF-2156A] | – | 831000 M⁻¹
CC(C)Cc1ccc([C@@H](C)C(=O)NCCOCCO)cc1 | – | 8120 M⁻¹
CC(C)c1ccc(O)c(C(=O)O)c1 | – | 26300 M⁻¹
O=C(O)c1cccc(-c2cc(Cl)cc(Cl)c2)c1 | – | 5750 M⁻¹
C[C@@H](C(=O)NCCN1CCCC1)c1ccc(OS(=O)(=O)C(F)(F)F)cc1 | – | 3890 M⁻¹
Cc1ccc(S(=O)(=O)NC(=O)NN2CCCCCC2)cc1 [CHEBI:9613] | – | 53700 M⁻¹
O=C(O)c1cccc(-c2cc(C(F)(F)F)cc(C(F)(F)F)c2)c1 | – | 3090 M⁻¹

More lines, now with the values ahead:

Ki | Association constant (Ka) | SMILES
– | 331000 M⁻¹ | CC(C(=O)O)c1ccc(-c2ccccc2)c(F)c1 (racemic) [2-(2-fluoro-[1,1'-biphenyl-4-yl])propanoic acid]
– | 26300 M⁻¹ | CC1=C(CC(=O)O)c2cc(F)ccc2/C1=C\c1ccc([S+](C)[O-])cc1 (stereo not given) [Sulindac]
– | 1.65e+06 M⁻¹ | CC(C)Cc1ccc([C@@H](C)C(=O)NS(C)(=O)=O)cc1 [(R)-2-(4-isobutylphenyl)-N-(methylsulfonyl)propanamide]
– | 2690 M⁻¹ | C[C@@H](C(=O)NCCCN1CCCC1)c1ccc(OS(=O)(=O)C(F)(F)F)cc1
– | 3890 M⁻¹ | CC(Cc1ccc([C@@H](C)C(=O)NS(C)(=O)=O)cc1)C(=O)O (stereo not given in full)
– | 39800 M⁻¹ | CC(C)Cc1ccc([C@@H](C)C(=O)N[C@H](C)C(=O)O)cc1
– | 81200 M⁻¹ | COc1ccc2c(c1)CN(c1ccc(C(C)C(=O)O)cc1)C2=O (stereo not given)
– | 2750 M⁻¹ | Nc1cccc(-c2ccc(O)c(C(=O)O)c2)c1
– | 2290 M⁻¹ | NS(=O)(=O)c1cc2c(cc1Cl)NCNS2(=O)=O [JFD00715]
– | 19000 M⁻¹ | C[C@@H](C(N)=O)c1ccc(OS(=O)(=O)C(F)(F)F)cc1
– | 199000 M⁻¹ | O=C(O)c1ccc(-c2ccccc2)cc1 [Biphenyl-4-carboxylic acid]
– | 39800 M⁻¹ | CCCNC(=O)NS(=O)(=O)c1ccc(Cl)cc1 [1-(4-chlorophenylsulfonyl)-3-propylurea]
– | 6160 M⁻¹ | Nc1ccc(-c2cccc(C(=O)O)c2)cc1
– | 251000 M⁻¹ | O=C(O)c1cccc(-c2ccccc2)c1
– | 1000 M⁻¹ | NCc1ccc(-c2ccc(C(=O)O)cc2)cc1
– | 7760 M⁻¹ | Nc1cccc(-c2cccc(C(=O)O)c2)c1
– | 100000 M⁻¹ | O=C(O)c1cc(-c2ccccc2)ccc1O [2-Hydroxy-5-phenylbenzoic acid]
– | 20400 M⁻¹ | CC(C)(C)c1ccc(O)c(C(=O)O)c1
– | 354 M⁻¹ | CC(C)NCC(O)c1ccc(NS(C)(=O)=O)cc1 (racemic) [Sotalol,(-)]
– | 109000 M⁻¹ | Cc1cc(CC(=O)O)n(C)c1C(=O)c1ccc(Cl)cc1
– | 208000 M⁻¹ | O=C(c1ccccc1)c1ccc2n1CCC2C(=O)O (stereo not given) [Toradol]
